According to patent US9763963B2, “Topically active steroids for use in interstitial pulmonary fibrosis” (Soligenix, Inc., priority 2008, dated 2017):
Values joined by “and” are separate entries in the source; they are usually repeats but may differ in a detail not shown here. Identical values can stand only once. Blank lines part the entries; values can stand above or below the compound they belong to.

Assays:
[1] = BDP and 17-BMP in plasma of right atrial blood after oral BDP; settings: oral BDP 2 mg
[2] = bioavailability study of oral BDP, given orally and intravenously to 12 healthy subjects
[3] = tested on: pulmonary function (FVC, FEV1, TLC, DLCO); experiment: pulmonary function testing after allogeneic HCT, oral BDP versus placebo; format: in vivo, human
Excerpt: Patients whose symptoms were controlled at study day ten continued on study drug while the prednisone dose was rapidly tapered. Patients whose symptoms required additional prednisone were considered treatment failures. Study drug was discontinued on the day of treatment failure. The duration of treatment with study drug was 30 days with a 10-day follow-up period in the first trial and 50 days with a 30-day follow-up period in the second trial.
Pulmonary function assessments included forced vital capacity (FVC), one-second forced expiratory volume (FEV1), total lung capacity (TLC), and carbon monoxide diffusion capacity (DLCO), which was adjusted for hemoglobin level at the time PFTs were obtained. All PFT values were expressed as a percent of the predicted value calculated according to published equations (Crapo R O et al., Am Rev Respir Dis, 1981; 123:659-664; Crapo R O et al., Am Rev Respir Dis, 1981; 123:185-189). Pretransplantation and Day 80 PFTs were obtained, regardless of the presence or absence of symptoms. After discharge, patients were encouraged to return at one year after transplantation, at which time another PFT was obtained. For purposes of the current study, PFTs performed between days 60 and 100 were considered as valid for the Day 80 PFT and tests performed between days 265 and 465 as valid for the one-year PFT. Change in lung function was assessed by comparing PFT parameters performed prior to start of conditioning to those obtained post-transplantation at Day 80 and one year. Analysis of change in lung function was done on an intent-to-treat basis, by randomization assignment to oral BDP or placebo, with maintenance of the study blind.

[4] = tested on: gastrointestinal graft-versus-host disease (GVHD); settings: cited from earlier work
[5] = tested on: noninfectious pulmonary complications; experiment: noninfectious pulmonary complications after randomization (record review); format: in vivo, human
Excerpt: (§1) While blinded to randomization assignment, investigators reviewed all patients' pulmonary radiologic records accumulated from the time of randomization to one year after transplantation. The medical records of all patients with abnormal pulmonary radiological findings were reviewed to determine whether the pulmonary disease was a clinically significant noninfectious or infectious syndrome. Clinically significant noninfectious pulmonary syndromes included idiopathic pneumonia syndrome (IPS), defined as widespread alveolar injury in the absence of active lower respiratory tract infection after HCT (Freudenberger T D et al., Blood, 2003; 102:3822-3828, diffuse alveolar hemorrhage (DAH), defined as IPS with bronchioalveolar lavage showing progressively bloodier return, or biopsy-proven cryptogenic organizing pneumonia (COP) otherwise known as bronchiolitis obliterans organizing pneumonia (BOOP). Clinically significant pulmonary infection required microbiologic documentation of an infectious agent in the respiratory tract via bronchoscopy or resolution of pulmonary abnormalities after empirical antibiotic therapy with no addition of immunosuppressive agents.

pulmonary infection = experiment: pulmonary infections after randomization (record review); format: in vivo, human
Excerpt: as §1

[6] = pre-HCT baseline to transplant day 80

- time of peak concentration in right atrial blood, median ([1]; study Day 50, four patients): 1.5 h
- median half-life ([1]; study Day 50, range 3.1-6.8): 6.3 h
- median Cm ([1]; study Day 50, range 632-3701): 1738 pg/mL
- total oral bioavailability ([2]; active metabolite after oral BDP, unpublished data): 21-41%
Compound: CCC(=O)O[C@]1(C(=O)CO)[C@@H](C)C[C@H]2[C@@H]3CCC4=CC(=O)C=C[C@]4(C)[C@@]3(Cl)[C@@H](O)C[C@@]21C [17-BMP, 17-beclomethasone monopropionate]

Compound: beclomethasone 17,21-dipropionate [BDP]
- DLCO: mean decrease from baseline to one year ([3]; 32 patients with data, placebo 15.27%, p=0.11): 7.67%
- DLCO, pulmonary function at one year ([3]; mean, n = 33): 78.1% of predicted normal values
- FEV1, pulmonary function at one year ([3]; mean, n = 33): 85.9% of predicted normal values
- FVC, pulmonary function at one year ([3]; mean, n = 33): 89.4% of predicted normal values
- TLC, pulmonary function at one year ([3]; mean, n = 33): 95.7% of predicted normal values
- DLCO, pulmonary function at Day 80 ([3]; mean, n = 54): 86.0% of predicted normal values
- TLC, pulmonary function at Day 80 ([3]; mean, n = 55): 96.9% of predicted normal values
- FEV1, pulmonary function at Day 80 ([3]; mean, n = 56): 90.3% of predicted normal values
- FVC, pulmonary function at Day 80 ([3]; mean, n = 56): 93.8% of predicted normal values
- FEV1: mean change ([3]; pre-HCT baseline to day 80, percent of predicted, range −22, +34, p 0.48): −0.05
- TLC: mean change ([3]; pre-HCT baseline to day 80, percent of predicted, range −25, +57, p 0.23): +1.41
- FVC: mean change ([3]; pre-HCT baseline to day 80, percent of predicted, range −30, +35, p 0.26): +0.34
- FEV1: % of patients who experienced a decrease [3, 6]: (50) %
- FVC: % of patients who experienced a decrease [3, 6]: (50) %
- TLC: % of patients who experienced a decrease [3, 6]: (58) %
- DLCO: N, proportion of patients who experienced a decrease ([3]; pre-HCT baseline to transplant day 80, p 0.02): 27 of 49 and 27/49
- FVC: N, proportion of patients who experienced a decrease ([3]; pre-HCT baseline to transplant day 80, p 0.66): 25/50
- FEV1: N, proportion of patients who experienced a decrease ([3]; pre-HCT baseline to transplant day 80, p 0.83): 25/50
- TLC: N, proportion of patients who experienced a decrease ([3]; pre-HCT baseline to transplant day 80, p 0.88): 29/50
- patients who developed noninfectious pulmonary infiltrative disorders ([4]; 80-day study period, placebo 12/67 (18%)): 0/62
- multiple bacteremic episodes ([4]; most recent trial, placebo 9%): none
- fungal infections ([4]; most recent trial, placebo 14%): 7%
- cytomegalovirus reactivations ([4]; most recent trial, placebo 39%): 28%
- reduction in mortality risk ([4]; one-year post-randomization): 45%
- noninfectious events ([5]; after Day 200): four
- cases of noninfectious pulmonary complications ([5]; first 200 days after randomization, 60 patients, placebo four): no cases
- day of noninfectious event ([5]; in order: COP/BOOP, IPS, bronchiolitis obliterans syndrome, DAH): 207 days and 212 days and 244 days and 269 days
- intravenous dexamethasone dose of equivalent systemic exposure ([2]; oral BDP 2 mg): less than 1 mg
- oral prednisone dose of equivalent systemic exposure ([2]; oral BDP 2 mg): 2.5 mg
- cases of pulmonary infection (pulmonary infection; first 200 days after randomization): 6
- cases of pulmonary infection (pulmonary infection; first year after randomization, 60 patients, placebo 11): 8
- share of first-year pulmonary infections that occurred in the first 200 days (pulmonary infection; in vivo): 75%
